# Assays:
# Staph. aureus = experiment: Minimal bactericidal concentration (MBC) assay; format: cell-based, Staphylococcus aureus
# Experimental: (§1) Minimal bactericidal concentration (MBC) assay—Overnight-grown MIC plates, prepared as described in Example 16, were evaluated to determine the MIC. Culture was then sampled from wells at and near the MIC using sterile inoculating loops, and transferred to fresh MHA plates to determine if viable bacteria remained. […] The MBC was determined as the well in the MIC plate which contained the lowest concentration of silver yielding no bacterial growth on the MHA plate.
# [1] = system: Staphylococcus epidermidis; experiment: MIC assay (microdilution); format: cell-based
# B. multivorans = experiment: Minimal bactericidal concentration (MBC) assay; format: cell-based, Burkholderia multivorans
# Experimental: as §1
# Streptococcus pneumoniae = experiment: MIC assay (microdilution); format: cell-based; conditions: lactate solutions
# Staph epidermidis = experiment: Minimal bactericidal concentration (MBC) assay; format: cell-based, Staphylococcus epidermidis
# Experimental: as §1
# Burkholderia dolosa = experiment: MIC assay (microdilution); format: cell-based
# [2] = system: Mycobacterium tuberculosis H37Ra (ATCC 25177); experiment: microbe, parasite or virus in culture; format: cell-based
# Shigella flexneri = experiment: MIC assay (microdilution); format: cell-based; conditions: ATCC 12022
# Staphylococcus aureus = experiment: MIC assay (microdilution); format: cell-based
# Klebsiella pneumoniae = experiment: MIC assay (microdilution); format: cell-based
# Enterobacter cloacae = experiment: MIC assay (microdilution); format: cell-based
# E. coli = experiment: Minimal bactericidal concentration (MBC) assay; format: cell-based, Escherichia coli
# Experimental: as §1
# Streptococcus pyogenes = experiment: MIC assay (microdilution); format: cell-based
# Burkholderia multivorans = experiment: MIC assay (microdilution); format: cell-based
# Ps. aeruginosa = experiment: Minimal bactericidal concentration (MBC) assay; format: cell-based, Pseudomonas aeruginosa
# Experimental: as §1
# Serratia marcescens = experiment: MIC assay (microdilution); format: cell-based
# C. freundii = experiment: Minimal bactericidal concentration (MBC) assay; format: cell-based, Citrobacter freundii; conditions: isolate NP410
# Experimental: as §1
# Pseudomonas aeruginosa = experiment: MIC assay (microdilution); format: cell-based
# K. pneumoniae = experiment: Minimal bactericidal concentration (MBC) assay; format: cell-based, Klebsiella pneumoniae
# Experimental: as §1
# B dolosa = experiment: Minimal bactericidal concentration (MBC) assay; format: cell-based, Burkholderia dolosa
# Experimental: as §1
# Prot. mirabilis = experiment: Minimal bactericidal concentration (MBC) assay; format: cell-based, Proteus mirabilis; conditions: isolate NP405
# Experimental: as §1
# Proteus mirabilis = experiment: MIC assay (microdilution); format: cell-based; conditions: isolate NP405
# Ser. marcescens = experiment: Minimal bactericidal concentration (MBC) assay; format: cell-based, Serratia marcescens
# Experimental: as §1
# Escherichia coli = experiment: MIC assay (microdilution); format: cell-based
# Strep. pyogenes = experiment: Minimal bactericidal concentration (MBC) assay; format: cell-based, Streptococcus pyogenes
# Experimental: as §1
# Citrobacter freundii = experiment: MIC assay (microdilution); format: cell-based; conditions: isolate NP410
smiles,measurement,setting,value
"O=[N+]([O-])[O-].[Ag+] [AgNO3, silver nitrate]",MBC,Staph. aureus; ATCC 6538,6 parts silver per million
same,MBC,Staph. aureus; ATCC 700699,6 parts silver per million
same,MBC,Staph. aureus; isolate NP101,11 parts silver per million
same,MBC,Staph. aureus; isolate NP102,6 parts silver per million
same,MBC,Staph. aureus; isolate NP103,6 parts silver per million
same,MIC,[1]; ATCC 12228,3 parts silver per million
same,MIC,"[1]; S. epiderm (ATCC), lactate solutions",3 µg/mL
same,MIC,[1]; isolate NP136,3 parts silver per million
same,MBC,B. multivorans; isolate B1,3 parts silver per million
same,MBC,B. multivorans; isolate B2,3 parts silver per million
same,MBC,B. multivorans; isolate B4,3 parts silver per million
same,MIC,Streptococcus pneumoniae; S. pneumo (clin 314),11 µg/mL
same,MIC,Streptococcus pneumoniae; S. pneumo (clin 315),21 µg/mL
same,MBC,Staph epidermidis; ATCC 12228,3 parts silver per million
same,MBC,Staph epidermidis; isolate NP136,3 parts silver per million
same,MIC,Burkholderia dolosa; isolate A3,2 parts silver per million
same,MIC,Burkholderia dolosa; isolate A4,2 parts silver per million
same,MIC,[2],2.5 μg/ml silver
same,MIC,Shigella flexneri; formulation type Lactate,2 ppm
same,MIC,Shigella flexneri; formulation type Water/Lecithin,2 ppm
same,MIC,Shigella flexneri; formulation type Water/PVA,1 ppm
same,MIC,Staphylococcus aureus; ATCC 6538,6 parts silver per million
same,MIC,Staphylococcus aureus; ATCC 700699,3 parts silver per million
same,MIC,"Staphylococcus aureus; S. aureus (ATCC), lactate solutions",11 µg/mL
same,MIC,"Staphylococcus aureus; S. aureus (clin.), lactate solutions",5 µg/mL
same,MIC,Staphylococcus aureus; isolate NP101,6 parts silver per million
same,MIC,Staphylococcus aureus; isolate NP102,6 parts silver per million
same,MIC,Staphylococcus aureus; isolate NP103,6 parts silver per million
same,MIC,Klebsiella pneumoniae; aerobic +,3 µg/mL
same,MIC,Klebsiella pneumoniae; aerobic − (anaerobic),3 µg/mL
same,MIC,Klebsiella pneumoniae; isolate NP401,3 parts silver per million
same,MIC,Klebsiella pneumoniae; isolate NP403,6 parts silver per million
same,MIC,"Klebsiella pneumoniae; isolate NP403, second entry",6 parts silver per million
same,MIC,Klebsiella pneumoniae; isolate NP406,1 parts silver per million
same,MIC,Enterobacter cloacae; aerobic +,13 µg/mL
same,MIC,Enterobacter cloacae; aerobic − (anaerobic),25 µg/mL
same,MBC,E. coli; ATCC 8739,0.4 parts silver per million
same,MBC,E. coli; ATCC 43745,0.4 parts silver per million
same,MBC,E. coli; isolate NP412,1 parts silver per million
same,MIC,"Streptococcus pyogenes; S. pyog (clin. 303), lactate solutions",3 µg/mL
same,MIC,"Streptococcus pyogenes; S. pyog (clin. 304), lactate solutions",5 µg/mL
same,MIC,Streptococcus pyogenes; isolate NP303,3 parts silver per million
same,MIC,Streptococcus pyogenes; isolate NP304,6 parts silver per million
same,MIC,Streptococcus pyogenes; isolate NP306,6 parts silver per million
same,MIC,Burkholderia multivorans; isolate B1,3 parts silver per million
same,MIC,Burkholderia multivorans; isolate B2,3 parts silver per million
same,MIC,Burkholderia multivorans; isolate B4,2 parts silver per million
same,MBC,Ps. aeruginosa; ATCC 27317,3 parts silver per million
same,MBC,Ps. aeruginosa; isolate NP201,3 parts silver per million
same,MBC,Ps. aeruginosa; isolate NP204,3 parts silver per million
same,MBC,Ps. aeruginosa; isolate NP206,1 parts silver per million
same,MIC,Serratia marcescens; aerobic +,6 µg/mL
same,MIC,Serratia marcescens; aerobic − (anaerobic),13 µg/mL
same,MIC,Serratia marcescens; isolate NP402,6 parts silver per million
same,MIC,"Serratia marcescens; isolate NP402, second entry",6 parts silver per million
same,MIC,Serratia marcescens; isolate NP408,6 parts silver per million
same,MIC,"Serratia marcescens; isolate NP408, second entry",11 parts silver per million
same,MBC,C. freundii,3 parts silver per million
same,MIC,Pseudomonas aeruginosa; ATCC 9027,1 parts silver per million
same,MIC,Pseudomonas aeruginosa; ATCC 27317,2 parts silver per million
same,MIC,"Pseudomonas aeruginosa; P. aerug (ATCC), lactate solutions",3 µg/mL
same,MIC,"Pseudomonas aeruginosa; P. aerug. (clin.), lactate solutions",3 µg/mL
same,MIC,Pseudomonas aeruginosa; isolate NP201,1 parts silver per million
same,MIC,Pseudomonas aeruginosa; isolate NP204,1 parts silver per million
same,MIC,Pseudomonas aeruginosa; isolate NP206,1 parts silver per million
same,MIC,"Pseudomonas aeruginosa; isolate NP212, formulation type Lactate",2 ppm
same,MIC,"Pseudomonas aeruginosa; isolate NP212, formulation type Water/Lecithin",3 ppm
same,MIC,"Pseudomonas aeruginosa; isolate NP212, formulation type Water/PVA",3 ppm
same,MBC,K. pneumoniae; isolate NP401,3 parts silver per million
same,MBC,K. pneumoniae; isolate NP403,6 parts silver per million
same,MBC,"K. pneumoniae; isolate NP403, second entry",3 parts silver per million
same,MBC,K. pneumoniae; isolate NP406,1 parts silver per million
same,MBC,B dolosa; isolate A3,3 parts silver per million
same,MBC,B dolosa; isolate A4,2 parts silver per million
same,MBC,Prot. mirabilis,13 parts silver per million
same,MIC,Proteus mirabilis,6 parts silver per million
same,MBC,Ser. marcescens; isolate NP402,6 parts silver per million
same,MBC,"Ser. marcescens; isolate NP402, second entry",6 parts silver per million
same,MBC,Ser. marcescens; isolate NP408,6 parts silver per million
same,MBC,"Ser. marcescens; isolate NP408, second entry",11 parts silver per million
same,MIC,Escherichia coli; ATCC 8739,0.4 parts silver per million
same,MIC,Escherichia coli; ATCC 43745,1 parts silver per million
same,MIC,"Escherichia coli; E. coli (ATCC), lactate solutions",3 µg/mL
same,MIC,Escherichia coli; isolate NP412,1 parts silver per million
same,MBC,Strep. pyogenes; isolate NP303,10 parts silver per million
same,MBC,Strep. pyogenes; isolate NP304,21 parts silver per million
same,MBC,Strep. pyogenes; isolate NP306,21 parts silver per million
same,MIC,Citrobacter freundii,3 parts silver per million

# Source: patent US20080014247A1, “METAL-CONTAINING FORMULATIONS AND METHODS OF USE” (Nucryst Pharmaceuticals, priority 2006, published 2008)
